The source of these data is patent publication US8293781B2, “Indole derivatives having cPLA2 inhibiting activity and applications and production methods of the same” (Daiichi Sankyo Company, Limited, priority 2007, dated 2012).

Molecules are shown by their SMILES. Structures can show the parent of a compound that is named as a salt.

Assay [1] addresses T1, cPLA2 crudely purified from the cytoplasm fraction of U937 (Homo sapiens, UniProt P47712).
T1 construct: cPLA2 crudely purified from the cytoplasm fraction of U937; endogenous in cells; host or cells: U937 cells (cytoplasm fraction, crude purification)
T1 sequence (P47712 1-749): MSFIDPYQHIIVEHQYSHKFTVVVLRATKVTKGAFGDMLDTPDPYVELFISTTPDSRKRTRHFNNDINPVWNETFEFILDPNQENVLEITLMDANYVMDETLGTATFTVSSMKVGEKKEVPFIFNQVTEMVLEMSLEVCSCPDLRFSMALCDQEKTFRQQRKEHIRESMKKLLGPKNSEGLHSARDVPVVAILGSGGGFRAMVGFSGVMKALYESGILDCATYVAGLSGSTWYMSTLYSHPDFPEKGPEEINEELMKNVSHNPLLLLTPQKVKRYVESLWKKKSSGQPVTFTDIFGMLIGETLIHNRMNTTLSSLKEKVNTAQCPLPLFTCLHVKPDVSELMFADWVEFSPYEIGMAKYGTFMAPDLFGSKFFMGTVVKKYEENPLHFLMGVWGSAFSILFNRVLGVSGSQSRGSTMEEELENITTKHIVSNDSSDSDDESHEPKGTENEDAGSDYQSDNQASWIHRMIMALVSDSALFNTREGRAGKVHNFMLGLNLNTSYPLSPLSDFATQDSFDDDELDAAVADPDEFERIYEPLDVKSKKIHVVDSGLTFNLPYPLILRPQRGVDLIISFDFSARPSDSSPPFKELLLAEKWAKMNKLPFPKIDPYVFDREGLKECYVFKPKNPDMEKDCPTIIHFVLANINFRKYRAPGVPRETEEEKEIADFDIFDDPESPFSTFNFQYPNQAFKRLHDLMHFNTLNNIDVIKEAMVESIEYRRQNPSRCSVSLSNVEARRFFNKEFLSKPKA
The assay can be described thus: Measurement of cPLA2 inhibitory activity (release of [14C]-arachidonic acid from phosphatidyl choline liposome). The class given is biochemical. The note with it: cPLA2 from U937 cytoplasm fraction, [14C]arachidonyl-phosphatidyl choline liposome, 37° C., 60 minutes; read-out: cPLA2 inhibitory activity, 50% inhibiting concentration IC50. Summed up: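 The read-out is radioactivity from extracted [14C]-arachidonic acid, freed over 60 min at 37° C from liposomes of 14C-arachidonyl phosphatidylcholine (10 μM PC in the added solution). Buffer was 50 mM HEPES pH 7.5 with Ca2+, DTT, NaCl and BSA. IC50 was derived from inhibition relative to enzyme control minus no-enzyme control.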

Assay [2] has as its system PGD2 production in rat mast cell like cell line RBL-2H3. The assay is described as follows: Antigen-induced PGD2 production system using RBL-2H3 sensitized by DNP specific IgE. The class given is cell-based. The conditions noted are these: 0.5 h, RBL-2H3, anti-DNP-IgE sensitized, antigen 10 μg/ml, 30 minutes. The procedure: To evaluate the PGD2 production inhibiting activity, the antigen-induced PGD2 production system using rat mast cell like cell line RBL-2H3 sensitized by a dinitrophenol (DNP) specific IgE with reference to the method of Yamashita et al. (see Yamashita, M. et al., Br J Pharmacol 129: 367, 2000) was used. That is, rat mast cell like cell line RBL-2H3 cells were suspended in a Dulbecco's modified Eagle's medium (Nacalai Tesque) containing 10% bovine fetal serum (BioWhittaker) and 10 μg/ml gentamycin (Invitrogen). The infiltrating cell suspension 200 μl containing 1×10^5 cells per well was inoculated to 96-well culture plate and cultured over night under conditions of 5% CO2 and 37° C. The culture supernatant was removed, then the suspension was cultured for 2 hours in the presence of an anti-DNP-IgE antibody (1 μg/ml) for 2 hours to sensitize it. After the sensitization, the supernatant was removed and the test compound solution or solvent was added. The resultant product was precultured for 30 minutes, then 10 μg/ml of antigen (DNP-human serum albumin conjugate) was added to elicite PGD2 production.
30 minutes after antigen stimulus, the culture supernatant was recovered and the amount of PGD2 in the supernatant was measured using an EIA kit (made by Cayman). Based on the measurement value, the test compound concentration (IC50 value) suppressing the amount of PGD2 production at the time of nonaddition of the compound by 50% was calculated.

Assay [3] has as its system TXB2 production in whole blood. The assay can be described thus: Calcium ionophore-induced TXB2 production system using whole blood. The assay is classed as cell-based. The conditions noted are these: Cavia porcellus, 0.25 h; Hartley guinea pig heparin blood diluted 2-fold, A23187 5 μM, 15 minutes. The procedure: For evaluation of the TXB2 production inhibiting activity, the calcium ionophore-induced TXB2 production system using whole blood with reference to the method of Alanko (see Alanko J., Prostaglandins 45: 193, 1993) was used. That is, heparin blood taken from Hartley guinea pigs was diluted 2-fold by an RPMI1640 medium (Nakalai Tesque) containing 10 μg/ml gentamycin (Invitrogen). The entire blood after dilution was inoculated in a 96-well culture plate in amounts of 200 μl per well, then the test compound solution or solvent was added. After 30 minutes preculture, calcium ionophore (A23187) was added to a final concentration of 5 μM to induce TXB2 production. 15 minutes after stimulus, the supernatant was recovered by centrifugal separation and the amount of TXB2 in the supernatant was measured using an EIA kit (Amersham).
Based on the measurement value, the test compound concentration suppressing 50% of the TXB2 production at the time of non-addition of a compound (IC50 value) was calculated.

Turning to `O=C(O)CCc1ccc2c(c1)c(CCc1ccccc1)cn2-c1ccc(O)cc1` [Example 126, 3-[1-(4-hydroxyphenyl)-3-(2-phenylethyl)-1H-indol-5-yl]propanoic acid], the figures for the IC50 in assay [1], in assay [2] and in assay [3] were 0.011 µM, 1.21 µM and 1.53 µM, respectively.

Consider `O=C(O)CCc1ccc2c(c1)c(CCc1ccccc1)cn2-c1ccc(F)cc1` [Example 187, 3-[1-(4-fluorophenyl)-3-(2-phenylethyl)-1H-indol-5-yl]propanoic acid], for which the results for the IC50 in assay [1], in assay [2] and in assay [3] were 0.058 µM, 0.43 µM and 5.14 µM, respectively.

For the molecule `O=C(O)CCc1ccc2c(c1)c(CCc1ccccc1)cn2-c1ccc(OC(F)F)cc1` [Example 190, 3-{1-[4-(difluoromethoxy)phenyl]-3-(2-phenylethyl)-1H-indol-5-yl}propanoic acid 2-amino-2-(hydroxymethyl)propane-1,3-diol salt (1:1)], the IC50 in assay [1] stood at 0.028 µM; in assay [2], 1.11 µM; in assay [3] it was 1.37 µM.

For the molecule `COCc1ccc(-n2cc(CCc3ccccc3)c3cc(CCC(=O)O)ccc32)cc1` [Example 217, 3-{1-[4-(methoxymethyl)phenyl]-3-(2-phenylethyl)-1H-indol-5-yl}propanoic acid 2-amino-2-(hydroxymethyl)propane-1,3-diol salt (1:1)], the IC50 was found to be 0.047 µM in assay [1], 1.12 µM in assay [2] and 2.02 µM in assay [3].

On to `O=C(O)CCc1ccc2c(c1)c(CCc1ccccc1)cn2-c1ccc(OCCO)cc1` [Example 229, 3-{1-[4-(2-hydroxyethoxy)phenyl]-3-(2-phenylethyl)-1H-indol-5-yl}propanoic acid 2-amino-2-(hydroxymethyl)propane-1,3-diol salt (1:1)], for which the IC50 amounted to 0.014 µM in assay [1], 0.89 µM in assay [2] and 0.58 µM in assay [3].

Turning to `O=C(O)CCc1ccc2c(c1)c(CCc1ccccc1)cn2-c1ccc(Oc2ccccc2)cc1` [Example 231, 3-[1-(4-phenoxyphenyl)-3-(2-phenylethyl)-1H-indol-5-yl]propanoic acid 2-amino-2-(hydroxymethyl)propane-1,3-diol salt (1:1)], the IC50 was 0.02 µM in assay [1], 0.76 µM in assay [2] and 0.54 µM in assay [3].
